Reference: US20050282833A1, “Pharmacological treatment of psoriasis” (priority 2002, published 2005)

What was measured:
[1] = tested on: patient with a history of plaque psoriasis; experiment: Case study 1: valacyclovir treatment of a plaque psoriasis patient; format: in vivo, human
Procedure: A patient with a history of plaque psoriasis over the last several years was diagnosed by their physician. Patient was treated with valacyclovir tablets at 500 mg taken 2 times a day for 20 days.

[2] = tested on: patient with a history of reoccurring plaque psoriasis; experiment: Case study 2: Valtrex (valacyclovir) treatment of a plaque psoriasis patient; format: in vivo, human; conditions: tablets 500 mg 3 times a day for several weeks, then 1.0 gram 3 times a day for several weeks; person
Procedure: A person with a history of reoccurring plaque psoriasis over the last 30 years, as diagnosed by their physician, began treatment with […] (valacyclovir) tablets at 500 mg taken 3 times a day for several weeks. Dosage of […] increased to 1.0 gram taken 3 times a day for several weeks. Both the psoriatic lesions and other symptoms associated with psoriasis improved and cleared to 75-80% recovery.

patients with psoriasis [3] = conditions: 10 week trial, cited from earlier work
[4] = tested on: patients with psoriatic lesions / psoriatic arthritis; conditions: cited from earlier work
pustular psoriasis = conditions: in vivo; cited from earlier work
cytomegalovirus (CMV) = conditions: ranking among herpes viruses; cited from earlier work
[5] = tested on: human herpesvirus (HHV-6); conditions: ranking among herpes viruses; cited from earlier work
patients with psoriasis [6] = conditions: cited from earlier work
[7] = tested on: psoriatic lesions of patients; conditions: once daily over 24 days; cited from earlier work
[8] = tested on: patients with plaque psoriasis; conditions: after 8 weeks of therapy; cited from earlier work

## CC(C)[C@H](N)C(=O)OCCOCn1cnc2c(=O)[nH]c(N)nc21 [valacyclovir]
[1]; since treatment ended
  reoccurrence of the psoriatic symptoms: No reoccurrence
[1]; tablets 500 mg 2 times a day for 20 days, person, plaque psoriasis
  recovery from the psoriasis: complete recovery
[2]
  recovery (psoriatic lesions and other symptoms improved and cleared): 75-80%

## hu1124: anti-CD11a-antibody
Patients with psoriasis [3]
  patients with headaches, chills, and fever: over half of the patients
Patients with psoriasis [3]; high dose group
  improvement of psoriasis: only moderate improvement

## etanercept
[4]; 12 weeks
  mean improvement of psoriatic lesions: 46%
[4]; psoriatic arthritis
  response to treatment in patients diagnosed with psoriatic arthritis: 73%

## infliximab: monoclonal antibody directed against TNF-α
Pustular psoriasis
  treating and sustaining clearing of pustular psoriasis: highly effective

## Nc1nc2c(ncn2COCCO)c(=O)[nH]1 [acyclovir]
Cytomegalovirus (CMV)
  activity against virus: least active
[5]
  activity against virus: least active

## basiliximab
Patients with psoriasis [6]; one patient with acute exacerbating psoriasis
  long-lasting clearing of lesions after last treatment: more than 10 weeks
Patients with psoriasis [6]; second patient with stable chronic plaque psoriasis
  improvement of lesions: did not show improvement

B1: IL-10: cytokine, inhibitor of Th1-type cell priming and Th2-type mediator (protein, UniProt P22301 19-178, looked up)
Interleukin-10: SPGQGTQSENSCTHFPGNLPNMLRDLRDAFSRVKTFFQMKDQLDNLLLKESLLEDFKGYLGCQALSEMIQFYLEEVMPQAENQDPDIKAHVNSLGENLKTLRLRLRRCHRFLPCENKSKAVEQVKNAFNKLQEKGIYKAMSEFDIFINYIEAYMTMKIRN
[7]
  improvement to psoriatic lesions: some improvement

B2: daclizumab: monoclonal antibody masking the cellular receptor CD25 for IL-2 (antibody, chains of the INN, looked up, V domains shown)
VH: QVQLVQSGAEVKKPGSSVKVSCKASGYTFTSYRMHWVRQAPGQGLEWIGYINPSTGYTEYNQKFKDKATITADESTNTAYMELSSLRSEDTAVYYCARGGGVFDYWGQGTLVTVSS
VL: DIQMTQSPSTLSASVGDRVTITCSASSSISYMHWYQQKPGKAPKLLIYTTSNLASGVPARFSGSGSGTEFTLTISSLQPDDFATYYCHQRSTYPLTFGQGTKVEVK
[8]
  patients experiencing a reduction in severity of plaque psoriasis: 30%
